{"source": "ChEMBL document CHEMBL5537158", "about": "“Polymyxins with Potent Antibacterial Activity against Colistin-Resistant Pathogens: Fine-Tuning Hydrophobicity with Unnatural Amino Acids” (J Med Chem, 2024)", "assay_type_in_all_cases": "functional", "key": {"Pseudomonas aeruginosa [1]": {"test_system": "Pseudomonas aeruginosa", "test": "Antimicrobial activity against Pseudomonas aeruginosa PAO1 assessed as bacterial growth inhibition incubated for 20 hrs by broth microdilution method"}, "Escherichia coli [2]": {"test_system": "Escherichia coli", "test": "Antimicrobial activity against […] Escherichia coli harboring mcr-1 assessed as bacterial growth inhibition incubated for 20 hrs by broth microdilution method"}, "Acinetobacter baumannii [3]": {"test_system": "Acinetobacter baumannii", "test": "Antimicrobial activity against Acinetobacter baumannii ATCC 19606 assessed as bacterial growth inhibition incubated for 20 hrs by broth microdilution method"}, "Pseudomonas aeruginosa [4]": {"test_system": "Pseudomonas aeruginosa", "test": "Antimicrobial activity against colistin resistant Pseudomonas aeruginosa 7197/19 assessed as bacterial growth inhibition incubated for 20 hrs by broth microdilution method"}, "Escherichia coli [5]": {"test_system": "Escherichia coli", "test": "Antibacterial activity against Escherichia coli ATCC 25922 assessed as bacterial growth inhibition incubated for 20 hrs by broth microdilution method"}, "Acinetobacter baumannii [6]": {"test_system": "Acinetobacter baumannii", "test": "Antimicrobial activity against colistin resistant Acinetobacter baumannii ATCC 3658/17 assessed as bacterial growth inhibition incubated for 20 hrs by broth microdilution method"}}, "note": "Positions of bridges follow the written chain, without caps; N, C: chain ends. Non-standard residues stand in square brackets, D forms with d. Residues, ends and D or L forms follow the SMILES beside them. *: point of attachment. dPhe(4-CF3) = N[C@H](Cc1ccc(C(F)(F)F)cc1)C(=O)O; Phe(3-F) = N[C@@H](Cc1cccc(F)c1)C(=O)O; Phe(4-F) = N[C@@H](Cc1ccc(F)cc1)C(=O)O; dPhe(4-F) = N[C@H](Cc1ccc(F)cc1)C(=O)O; d(hhPhe) = N[C@H](CCCc1ccccc1)C(=O)O; hhPhe = N[C@@H](CCCc1ccccc1)C(=O)O; Octanoyl = CCCCCCCC(=O)*; Dab = NCC[C@H](N)C(=O)O", "data": [{"smiles": "CCCCCCCC(=O)N[C@@H](CCN)C(=O)N[C@H](C(=O)N[C@@H](CCN)C(=O)N[C@H]1CCNC(=O)[C@H]([C@@H](C)O)NC(=O)[C@H](CCN)NC(=O)[C@H](CCN)NC(=O)[C@H](CCCc2ccccc2)NC(=O)[C@@H](CC(C)C)NC(=O)[C@H](CCN)NC1=O)[C@@H](C)O", "note": "(Octanoyl-[Dab]T[Dab][Dab][Dab][dL][hhPhe][Dab][Dab]T; lactam 4-C)", "values": [{"measurement": "MIC", "setting": "Pseudomonas aeruginosa [1]", "result": 0.5, "unit": "mg/L"}, {"measurement": "MIC", "setting": "Escherichia coli [2]", "result": 1, "unit": "mg/L"}, {"measurement": "MIC", "setting": "Acinetobacter baumannii [3]", "result": "< 0.125", "unit": "mg/L"}, {"measurement": "MIC", "setting": "Pseudomonas aeruginosa [4]", "result": 0.5, "unit": "mg/L"}, {"measurement": "MIC", "setting": "Escherichia coli [5]", "result": 0.5, "unit": "mg/L"}, {"measurement": "MIC", "setting": "Acinetobacter baumannii [6]", "result": 0.5, "unit": "mg/L"}]}, {"smiles": "CCCCCCCC(=O)N[C@@H](CCN)C(=O)N[C@H](C(=O)N[C@@H](CCN)C(=O)N[C@H]1CCNC(=O)[C@H]([C@@H](C)O)NC(=O)[C@H](CCN)NC(=O)[C@H](CCN)NC(=O)[C@H](Cc2ccc(F)cc2)NC(=O)[C@@H](CC(C)C)NC(=O)[C@H](CCN)NC1=O)[C@@H](C)O", "note": "(Octanoyl-[Dab]T[Dab][Dab][Dab][dL][Phe(4-F)][Dab][Dab]T; lactam 4-C)", "values": [{"measurement": "MIC", "setting": "Pseudomonas aeruginosa [1]", "result": 0.125, "unit": "mg/L"}, {"measurement": "MIC", "setting": "Escherichia coli [2]", "result": 2, "unit": "mg/L"}, {"measurement": "MIC", "setting": "Acinetobacter baumannii [3]", "result": 0.25, "unit": "mg/L"}, {"measurement": "MIC", "setting": "Pseudomonas aeruginosa [4]", "result": 32, "unit": "mg/L"}, {"measurement": "MIC", "setting": "Acinetobacter baumannii [6]", "result": 16, "unit": "mg/L"}]}, {"smiles": "CCCCCCCC(=O)N[C@@H](CCN)C(=O)N[C@H](C(=O)N[C@@H](CCN)C(=O)N[C@H]1CCNC(=O)[C@H]([C@@H](C)O)NC(=O)[C@H](CCN)NC(=O)[C@H](CCN)NC(=O)[C@H](Cc2ccccc2)NC(=O)[C@@H](CCCc2ccccc2)NC(=O)[C@H](CCN)NC1=O)[C@@H](C)O", "note": "(Octanoyl-[Dab]T[Dab][Dab][Dab][d(hhPhe)]F[Dab][Dab]T; lactam 4-C)", "values": [{"measurement": "MIC", "setting": "Escherichia coli [2]", "result": 2, "unit": "mg/L"}, {"measurement": "MIC", "setting": "Pseudomonas aeruginosa [4]", "result": 0.5, "unit": "mg/L"}, {"measurement": "MIC", "setting": "Escherichia coli [5]", "result": 0.25, "unit": "mg/L"}, {"measurement": "MIC", "setting": "Acinetobacter baumannii [6]", "result": 1, "unit": "mg/L"}]}, {"smiles": "CCCCCCCC(=O)N[C@@H](CCN)C(=O)N[C@H](C(=O)N[C@@H](CCN)C(=O)N[C@H]1CCNC(=O)[C@H]([C@@H](C)O)NC(=O)[C@H](CCN)NC(=O)[C@H](CCN)NC(=O)[C@H](CC(C)C)NC(=O)[C@@H](CCCc2ccccc2)NC(=O)[C@H](CCN)NC1=O)[C@@H](C)O", "note": "(Octanoyl-[Dab]T[Dab][Dab][Dab][d(hhPhe)]L[Dab][Dab]T; lactam 4-C)", "values": [{"measurement": "MIC", "setting": "Acinetobacter baumannii [3]", "result": "< 0.125", "unit": "mg/L"}, {"measurement": "MIC", "setting": "Pseudomonas aeruginosa [4]", "result": 0.5, "unit": "mg/L"}, {"measurement": "MIC", "setting": "Escherichia coli [5]", "result": "< 0.125", "unit": "mg/L"}]}, {"smiles": "CCCCCCCC(=O)N[C@@H](CCN)C(=O)N[C@H](C(=O)N[C@@H](CCN)C(=O)N[C@H]1CCNC(=O)[C@H]([C@@H](C)O)NC(=O)[C@H](CCN)NC(=O)[C@H](CCN)NC(=O)[C@H](CC(C)C)NC(=O)[C@@H](Cc2ccc(F)cc2)NC(=O)[C@H](CCN)NC1=O)[C@@H](C)O", "note": "(Octanoyl-[Dab]T[Dab][Dab][Dab][dPhe(4-F)]L[Dab][Dab]T; lactam 4-C)", "values": [{"measurement": "MIC", "setting": "Escherichia coli [2]", "result": 2, "unit": "mg/L"}, {"measurement": "MIC", "setting": "Acinetobacter baumannii [3]", "result": 0.06, "unit": "mg/L"}, {"measurement": "MIC", "setting": "Escherichia coli [5]", "result": 0.03, "unit": "mg/L"}, {"measurement": "MIC", "setting": "Acinetobacter baumannii [6]", "result": 0.25, "unit": "mg/L"}]}, {"smiles": "CCCCCCCC(=O)N[C@@H](CCN)C(=O)N[C@H](C(=O)N[C@@H](CCN)C(=O)N[C@H]1CCNC(=O)[C@H]([C@@H](C)O)NC(=O)[C@H](CCN)NC(=O)[C@H](CCN)NC(=O)[C@H](CC(C)C)NC(=O)[C@@H](Cc2ccc(C(F)(F)F)cc2)NC(=O)[C@H](CCN)NC1=O)[C@@H](C)O", "note": "(Octanoyl-[Dab]T[Dab][Dab][Dab][dPhe(4-CF3)]L[Dab][Dab]T; lactam 4-C)", "values": [{"measurement": "MIC", "setting": "Escherichia coli [2]", "result": 1, "unit": "mg/L"}, {"measurement": "MIC", "setting": "Acinetobacter baumannii [3]", "result": 0.25, "unit": "mg/L"}, {"measurement": "MIC", "setting": "Pseudomonas aeruginosa [4]", "result": 0.25, "unit": "mg/L"}, {"measurement": "MIC", "setting": "Escherichia coli [5]", "result": 0.25, "unit": "mg/L"}, {"measurement": "MIC", "setting": "Acinetobacter baumannii [6]", "result": 0.5, "unit": "mg/L"}]}, {"smiles": "CCCCCCCC(=O)N[C@@H](CCN)C(=O)N[C@H](C(=O)N[C@@H](CCN)C(=O)N[C@H]1CCNC(=O)[C@H]([C@@H](C)O)NC(=O)[C@H](CCN)NC(=O)[C@H](CCN)NC(=O)[C@H](Cc2cccc(F)c2)NC(=O)[C@@H](CC(C)C)NC(=O)[C@H](CCN)NC1=O)[C@@H](C)O", "note": "(Octanoyl-[Dab]T[Dab][Dab][Dab][dL][Phe(3-F)][Dab][Dab]T; lactam 4-C)", "values": [{"measurement": "MIC", "setting": "Escherichia coli [2]", "result": 4, "unit": "mg/L"}, {"measurement": "MIC", "setting": "Acinetobacter baumannii [3]", "result": 0.25, "unit": "mg/L"}, {"measurement": "MIC", "setting": "Pseudomonas aeruginosa [4]", "result": 1, "unit": "mg/L"}, {"measurement": "MIC", "setting": "Escherichia coli [5]", "result": 0.25, "unit": "mg/L"}]}]}
